Laboratory results: US5112515A, “Phenothrin shampoo” (Euroceltique, S.A., priority 1990, dated 1992)

Test system: Bacteria, moulds and yeasts
Test: Efficacy of Antimicrobial Preservatives in Pharmaceutical Products (British Pharmacopoeia 1988), overall outcome
Type: cell-based
Details: specification of British Pharmacopoeia 1988
From the text: The test procedure conformed with the specifications described in the 1988 British Pharmacopoeia--"Efficacy of Antimicrobial Preservatives in Pharmaceutical Products".
Aliquots of microbial suspensions of Pseudomonas aeruoinosa NC18 8626, Stahylococcus aureus NCTC 10788, Candida albicans NCPF 3179, and Asperoillus niger IMI 149007 were introduced into separate containers of the composition of Example 1 to achieve a final concentration of approximately 1×10^6 cfu/ml. The same volume of inoculum was simultaneously introduced into separate equivalent quantities of 0.1% peptone water to be used as controls. The inoculated product was stored in the dark at 20°-25° C.
1 ml aliquots of the inoculated product were removed at 0, 6, 24 and 48 hours, 7, 14 and 28 days. Each was added to 9 ml of 0.1% peptone water containing the following as preservative inactivating agents:
A topical preparation is considered to be effectively preserved if the following criteria are met:
Bacteria--the number of organisms recovered per ml is reduced by a factor of not less than 10^3 within 48 hours of challenge and no organism is recovered from 1 ml at 7 days and thereafter;
Moulds and Yeasts--the number of organisms recovered per ml is reduced by a factor of not less than 10^2 within 14 days of challenge and there is no increase thereafter.

O=[N+]([O-])C(Br)(CO)CO [bronopol, 2-bromo-2-nitropropane-1,3,-diol]
Antimicrobial protection / antimicrobial properties of the shampoo: good antimicrobial protection
